Experimental data reported in US20240123073A1, “NOVEL RIPK1 KINASE TARGETING PROTACS AND METHODS OF USE THEREOF” (Baylor College of Medicine, priority 2020, published 2024).

The compounds below were run against T1, RIPK1 (Homo sapiens, UniProt Q13546) (assay: RIPK1 degradation Western Blot assay). Settings: human cells, 24 h incubation at 37° C., read-out: Degradation Activity (DC50, concentration at which 50% of RIPK1 kinase has been degraded).
T1 construct: endogenous in cells
T1 sequence (Q13546 1-671): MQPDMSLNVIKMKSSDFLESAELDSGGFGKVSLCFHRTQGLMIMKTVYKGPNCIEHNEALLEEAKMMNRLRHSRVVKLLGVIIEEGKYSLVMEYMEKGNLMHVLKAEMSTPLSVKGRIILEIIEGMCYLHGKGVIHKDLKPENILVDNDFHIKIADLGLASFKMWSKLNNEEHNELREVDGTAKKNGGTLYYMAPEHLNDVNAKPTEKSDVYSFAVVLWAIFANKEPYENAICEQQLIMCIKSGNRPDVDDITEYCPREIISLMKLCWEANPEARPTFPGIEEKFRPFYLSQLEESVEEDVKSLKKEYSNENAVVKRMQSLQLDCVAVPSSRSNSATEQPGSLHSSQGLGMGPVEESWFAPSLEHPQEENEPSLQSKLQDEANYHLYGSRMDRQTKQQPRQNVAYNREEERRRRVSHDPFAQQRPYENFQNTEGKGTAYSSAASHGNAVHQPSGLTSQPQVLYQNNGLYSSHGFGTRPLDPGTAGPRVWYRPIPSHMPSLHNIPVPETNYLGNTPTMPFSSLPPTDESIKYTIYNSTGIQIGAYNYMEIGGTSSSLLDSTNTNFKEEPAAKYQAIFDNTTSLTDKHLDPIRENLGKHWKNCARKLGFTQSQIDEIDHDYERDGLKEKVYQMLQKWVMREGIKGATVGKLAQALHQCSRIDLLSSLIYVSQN
Type: cell-based
Description: Cells were seeded in 6-well cell culture plates overnight prior to treatment and incubated with the indicated doses of compounds for 24 h at 37° C. Then, cell pellets were collected and resuspended with RIPA lysis buffer, which was added with 1% […] inhibitor and phosphatase inhibitor Cocktail. Whole-cell protein lysates were sonicated on ice for 20 seconds and centrifuged at 12 000 rpm for 20 min at 4° C. The supernatants were determined using the BCA method. Proteins were separated by sodium dodecyl sulfate-polyacrylamide gel electrophoresis and transferred to polyvinylidene fluoride membranes. The membranes were incubated with blocking buffer for 1 h. Then, the membranes were incubated at 4° C. overnight with the primary antibodies. After washing, the membranes were incubated for 1 h at room temperature with the secondary antibody and washed again. Changes in protein expression was detected using an enhanced chemiluminescence detection reagent. RIPK1 antibody was purchased from Santa Cruz.
The activities of exemplary compounds as described herein, measured in terms of the degradation concentration (DC50 representing the concentration at which 50% of the target, in this case RIPK1 kinase, has been degraded), are provided in Table 11. In Table 11, a DC50 value less than 1 μM is indicated as an “A;” a DC50 value from 1 μM to 10 μM is indicated as a “B” and a DC50 value of greater than 10 μM is indicated as a “C.”

| DC50 [µM] | Compound |
| --- | --- |
| > 10 | O=C1CCC(C2C(=O)c3cccc(NCCOCCOCCOCCC(=O)N4CCC(C(=O)N5N=CCC5c5ccccc5)CC4)c3C2=O)C(=O)N1 (stereo not drawn) [Compound 11] |
| 1 to 10 | O=C(NCCOCCC(=O)N1CCC(C(=O)N2N=CCC2c2ccccc2)CC1)[C@@H]1NC2(CCCCC2)[C@@]2(C(=O)Nc3cc(Cl)ccc32)[C@H]1c1cccc(Cl)c1F (stereo partly drawn) [Compound 15, (3′R,4'S,5′R)-6″-chloro-4′-(3-chloro-2-fluorophenyl)-2″-oxo-N-(2-(3-oxo-3-(4-(5-phenyl-4,5-dihydro-1H-pyrazole-1-carbonyl)piperidin-1-yl)propoxy)ethyl)dispiro[cyclohexane-1,2′-pyrrolidine-3′,3″-indoline]-5′-carboxamide] |
| 1 to 10 | O=C1CCC(N2C(=O)c3cccc(NCCOCCOCCOCCNC(=O)c4ccnc(N5CCC(C(=O)N6N=CCC6c6ccccc6)CC5)n4)c3C2=O)C(=O)N1 (stereo not drawn) [Compound 19, N-(2-(2-(2-(2-((2-(2,6-dioxopiperidin-3-yl)-1,3-dioxoisoindolin-4-yl)amino)ethoxy)ethoxy)ethoxy)ethyl)-2-(4-(5-phenyl-4,5-dihydro-1H-pyrazole-1-carbonyl)piperidin-1-yl)pyrimidine-4-carboxamide] |
| 1 to 10 | O=C(NCCOCCOCCOCCNC(=O)[C@@H]1NC2(CCCCC2)[C@@]2(C(=O)Nc3cc(Cl)ccc32)[C@H]1c1cccc(Cl)c1F)c1ccnc(N2CCC(C(=O)N3N=CCC3c3ccccc3)CC2)n1 (stereo partly drawn) [Compound 20, (3′R,4'S,5′R)-6″-chloro-4′-(3-chloro-2-fluorophenyl)-2″-oxo-N-(1-oxo-1-(2-(4-(5-phenyl-4,5-dihydro-1H-pyrazole-1-carbonyl)piperidin-1-yl)pyrimidin-4-yl)-5,8,11-trioxa-2-azatridecan-13-yl)dispiro[cyclohexane-1,2′-pyrrolidine-3′,3″-indoline]-5′-carboxamide] |
| > 10 | O=C1CCC(N2C(=O)c3cccc(NCCOCCOCCOCCNC(=O)c4ccc(-c5cc(N6CCC(C(=O)N7N=CCC7c7ccccc7)CC6)ncn5)cc4)c3C2=O)C(=O)N1 (stereo not drawn) [Compound 21, N-(2-(2-(2-(2-((2-(2,6-dioxopiperidin-3-yl)-1,3-dioxoisoindolin-4-yl)amino)ethoxy)ethoxy)ethoxy)ethyl)-4-(6-(4-(5-phenyl-4,5-dihydro-1H-pyrazole-1-carbonyl)piperidin-1-yl)pyrimidin-4-yl)benzamide] |

Continued, compound first:

| Compound | DC50 [µM] |
| --- | --- |
| Cc1ncsc1-c1ccc([C@H](C)NC(=O)[C@@H]2C[C@@H](O)CN2C(=O)[C@@H](NC(=O)CCC(=O)NCCCn2cc(-c3ccc4c(c3)CCN4C(=O)Cc3cccc(OC(F)(F)F)c3)c3c(N)ncnc32)C(C)(C)C)cc1 [Compound 1, N1-(3-(4-amino-5-(1-(2-(3-(trifluoromethoxy)phenyl)acetyl)indolin-5-yl)-7H-pyrrolo[2,3-d]pyrimidin-7-yl)propyl)-N4-((S)-1-((2S,4R)-4-hydroxy-2-(((S)-1-(4-(4 methylthiazol-5-yl)phenyl)ethyl)carbamoyl)pyrrolidin-1-yl)-3,3-dimethyl-1-oxobutan-2-yl)succinimide] | 1 to 10 |
| Nc1ncnc2c1c(-c1ccc3c(c1)CCN3C(=O)Cc1cccc(OC(F)(F)F)c1)cn2CCCNC(=O)CCOCCOCCOCCNc1cccc2c1C(=O)C(C1CCC(=O)NC1=O)C2=O (stereo not drawn) [Compound 8, N-(3-(4-amino-5-(1-(2-(3-(trifluoromethoxy)phenyl)acetyl)indolin-5-yl)-7H-pyrrolo[2,3-d]pyrimidin-7-yl)propyl)-3-(2-(2-(2-((2-(2,6-dioxopiperidin-3-yl)-1,3-dioxo-2,3-dihydro-1H-inden-4-yl)amino)ethoxy)ethoxy)ethoxy)propanamide] | 1 to 10 |
| Nc1ncnc2c1c(-c1ccc3c(c1)CCN3C(=O)Cc1cccc(OC(F)(F)F)c1)cn2CCCNC(=O)CCCCCCCCNC(=O)[C@@H]1NC2(CCCCC2)[C@@]2(C(=O)Nc3cc(Cl)ccc32)[C@H]1c1cccc(Cl)c1F [Compound 10, (3′R,4'S,5′R)-N-(9-((3-(4-amino-5-(1-(2-(3-(trifluoromethoxy)phenyl)acetyl)indolin-5-yl)-7H-pyrrolo[2,3-d]pyrimidin-7-yl)propyl)amino)-9-oxononyl)-6″-chloro-4′-(3-chloro-2-fluorophenyl)-2″-oxodispiro[cyclohexane-1,2′-pyrrolidine-3′,3″-indoline]-5′-carboxamide] | 1 to 10 |
| O=C1CCC(C2C(=O)c3cccc(NCCOCCOCCC(=O)N4CCC(C(=O)N5N=CCC5c5ccccc5)CC4)c3C2=O)C(=O)N1 (stereo not drawn) [Compound 12] | > 10 |
| Cc1ncsc1-c1ccc([C@H](C)NC(=O)[C@@H]2C[C@@H](O)CN2C(=O)[C@@H](NC(=O)CCCCCCCCC(=O)N2CCC(C(=O)N3N=CCC3c3ccccc3)CC2)C(C)(C)C)cc1 (stereo partly drawn) [Compound 13, (2S,4R)-1-((2S)-3,3-dimethyl-2-(10-oxo-10-(4-(5-phenyl-4,5-dihydro-1H-pyrazole-1-carbonyl)piperidin-1-yl)decanamide)butanoyl)-4-hydroxy-N—((S)-1-(4-(4-methylthiazol-5-yl)phenyl)ethyl)pyrrolidine-2-carboxamide] | > 10 |
| Cc1ncsc1-c1ccc([C@H](C)NC(=O)[C@@H]2C[C@@H](O)CN2C(=O)[C@@H](NC(=O)CCOCCOCCOCCNC(=O)c2ccc(-c3cc(N4CCC(C(=O)N5N=CCC5c5ccccc5)CC4)ncn3)cc2)C(C)(C)C)cc1 (stereo partly drawn) [Compound 23, (2S,4R)-1-((16S)-16-(tert-butyl)-1,14-dioxo-1-(4-(6-(4-(5-phenyl-4,5-dihydro-1H-pyrazole-1-carbonyl)piperidin-1-yl)pyrimidin-4-yl)phenyl)-5,8,11-trioxa-2,15-diazaheptadecane-17-oyl)-4-hydroxy-N—((S)-1-(4-(4-methylthiazol-5-yl)phenyl)ethyl)pyrrolidine-2-carboxamide] | > 10 |
| Cc1ncsc1-c1ccc([C@H](C)NC(=O)[C@@H]2C[C@@H](O)CN2C(=O)[C@@H](NC(=O)CCOCCOCCOCCOCCn2cc(-c3ccc4c(c3)CCN4C(=O)Cc3cccc(OC(F)(F)F)c3)c3c(N)ncnc32)C(C)(C)C)cc1 [Compound 29, (2S,4R)-1-((S)-1-(4-amino-5-(1-(2-(3-(trifluoromethoxy)phenyl)acetyl)indolin-5-yl)-7H-pyrrolo[2,3-d]pyrimidin-7-yl)-17-(tert-butyl)-15-oxo-3,6,9,12-tetraoxa-16-azaoctadecan-18-oyl)-4-hydroxy-N—((S)-1-(4-(4-methylthiazol-5-yl)phenyl)ethyl)pyrrolidine-2-carboxamide] | < 1 |
| Cc1ncsc1-c1ccc([C@H](C)NC(=O)[C@@H]2C[C@@H](O)CN2C(=O)[C@@H](NC(=O)CCc2ccc(C#Cc3ccc(C(=O)NCCCn4cc(-c5ccc6c(c5)CCN6C(=O)Cc5cccc(OC(F)(F)F)c5)c5c(N)ncnc54)cc3)cn2)C(C)(C)C)cc1 [Compound 33] | < 1 |
| Cc1ncsc1-c1ccc([C@H](C)NC(=O)[C@@H]2C[C@@H](O)CN2C(=O)[C@@H](NC(=O)CCc2ccc(C#Cc3ccc(CCC(=O)NCCCn4cc(-c5ccc6c(c5)CCN6C(=O)Cc5cccc(OC(F)(F)F)c5)c5c(N)ncnc54)cc3)cn2)C(C)(C)C)cc1 [Compound 34] | < 1 |
| Cc1ncsc1-c1ccc([C@H](C)NC(=O)[C@@H]2C[C@@H](O)CN2C(=O)[C@@H](NC(=O)c2ccc(C#Cc3ccc(C(=O)NCCCn4cc(-c5ccc6c(c5)CCN6C(=O)Cc5cccc(OC(F)(F)F)c5)c5c(N)ncnc54)cc3)cn2)C(C)(C)C)cc1 [Compound 35] | < 1 |
